Measured values published in patent US20120302530A1, “23-HYDROXY-BETULINIC ACID DERIVATIVES, PREPARATION METHODS AND USES THEREOF” (priority 2009, published 2012).
Like-named read-outs stand apart in the source and are kept apart here.

Legend:
[1] = test system: C8166 (human T cell line); test: Toxicity to C8166 cells (MTT, day 7); format: cell-based; conditions: C8166, day 7, MTT
Experimental: (§1) (2) Toxicity of compounds zhangnan-5, zhangnan-7 and zhangnan-8 to C8166 and PBMC cells:
(§2) C8166 (human T cell line) and PBM (using lymphocyte isolation liquid to separate from normal human peripheral blood, and adhered mononuclear cell separated from PBMC) cells in exponential phase are taken. The cells are resuspended after centrifugal (1000 r•min-1, 10 min), and the concentrations are adjusted to 4×10^5/ml and 2×10^6/ml. The test samples are double diluted on the 96-hole cell culture plate. In total 6 gradients are set, each having 3 duplicate holes. In addition, positive control group and cell control group are set. Upon adding cell suspended liquid, the test samples are placed in incubator of 370C and 5% CO2 for incubation. On the seventh (7th) day, MTT method is used to determine toxicity of the samples to cells.
(§3) Inhibition ratio of cell growth (%)=(1−experimental hole OD value/control hole (OD value)×100%

[2] = test system: HIV-1IIIB; test: Inhibition of HIV-1IIIB induced syncytium formation in C8166 cells; format: cell-based; conditions: for therapeutic index TI: HIV-1IIIB syncytium, C8166, TI=IC50/EC50; for EC50: HIV-1IIIB, C8166 cells, third day after infection
Text: (3) The inhibition effects of compounds zhangnan-5, zhangnan-7 and zhangnan-8 to virus HIV-1IIIB inducing C8166 cell to form syncytium: (see JIANG, Haiou; WANG, Xu; L I, Rurun; CHEN, Dagang; B I, Kunlong, Experimental Research on Recipe Sanhuangsan Capsule for Resisting AIDS virus in Vitro, [J]. Shandong Journal of Traditional Chinese medicine, 2005.8 (1):21-26).
The test sample is double diluted with culture medium on the 96-hole flat culture plate. There are 8 dilutions in total. Each hole 100 ul has 2 duplicate holes. In addition, there are positive control group, cell control group and virus control group. 80 ul C8166 cell of 4×10^5/ml is added into each hole, and then 20 ul virus HIV-1IIIB supernatant is added into each hole. The final volume of each hole is 200 ul. The sample is placed in incubator of 370C, 5% CO2 for cultivation. […] Under the inverted microscope, the number of syncytium formed by virus HIV-1IIIB inducing C8166 cell is counted. […] The following formula is used to calculate the inhibition ratio of the sample to syncytium.
Inhibition ratio formed by syncytium (%)=(1−experimental hole syncytium number/control hole syncytium number)×100%

[3] = test system: normal person PBMC; test: Toxicity to PBMC cells (MTT, day 7); format: cell-based, human; conditions: day 7, MTT
Experimental: as §1, §2, §3

[4] = test system: HIV-1Ada-M; test: ELISA of HIV-1Ada-M p24 antigen expression in PBMC; format: cell-based; conditions: for therapeutic index TI: HIV-1Ada-M p24, PBMC, TI=IC50/EC50
Text: (4) Quantitative Enzyme Linked Immunoadsorbent method (EIISA) detecting inhibiting effects of compounds to virus HIV-1Ada-Mp24 expression: (see JIANG, Haiou; WANG, Xu; L I, Rurun; CHEN, Dagang; B I, Kunlong, Experimental Research on Recipe Sanhuangsan Capsule Resisting AIDS Virus in Vitro, [J], Shandong Journal of Traditional Chinese medicine, 2005.8 (1):21-26).
Multi-heads sample injector is used to conduct triple dilution to the sample on the 96-hole culture plate. There are 6 dilutions, in which each dilution has 3 duplicate holes, and each hole is 100 ul. […] On the 96-hole flat culture plate, each hole is added with 25 ul virus stock solution containing 1000˜5000 pg/well P24 antigen, which is sufficiently blended. 75 ul mononuclear cell PBMC suspension liquid is added (3×10^5 cell numbers/hole). Upon placing in incubator of 37° C., 5% CO2 to the third day, 100 ul of culture medium is added to each hole. On the 7th day, cell culture supernatant is collected for p24 antigen test. According to p24 kit description, ELISA method is used to measure the virus HIV-1 p24 antigen concentration of each sample cell culture hole supernatant. The following formula is used to calculate the inhibition ratio of sample to virus.
Inhibition ratio of sample to virus p24 antigen (%)=(1−experimental hole OD value/cell+virus control hole OD value)×100%. Reed and Mueneh method is used to calculate EC50 of the test sample, and to further calculate the therapeutic index (TI) (TI=IC50/EC50). […] The positive control SCH-C, 23-hydroxyl-betulinic acid, compounds zhangnan-5, zhangnan-7 and zhangnan-8 all reach an inhibition ratio above 50% within the tested range. The positive control SCH-C inhibits HIV-1Ada-M p24 antigen expression. […] In addition, the inhibition effect to HIV-1Ada-M has significant dose-effect relationship with its concentration.

[5] = when even reaching 500 mg/kg; cited from earlier work

| EC50 [2] [µM] | SMILES | therapeutic index TI [2] | therapeutic index TI [4] | other results |
| --- | --- | --- | --- | --- |
| 1.2 ± 0.23 | C=C(C)[C@@H]1CC[C@]2(C(=O)O)CC[C@]3(C)[C@H](CC[C@@H]4[C@@]5(C)CC[C@H](O)[C@@](C)(CO)[C@@H]5CC[C@]43C)[C@@H]12 [23-hydroxyl-betulinic acid, reference compound] | 13 | 7.8 | IC50 ([1]; read-out: IC50 (50% inhibition concentration) to C8166 cell): 15.1 ± 3.57 µM; IC50 [3]: 14.9 ± 3.46 µM; EC50 ([4]; HIV-1Ada-M, PBMC, 7th day, ELISA, read-out: EC50, inhibition of p24 antigen expression): 1.9 ± 0.39 µM |
| 1.39 | Cc1cn([C@H]2C[C@H](N=[N+]=[N-])[C@@H](CO)O2)c(=O)[nH]c1=O [AZT, reference compound] | 2473 | – | IC50 ([1]; positive control, read-out: toxicity to 50% of C8166 cells): 3440 µM |
| – | C=C(C)[C@@H]1CC[C@]2(C(=O)O)CC[C@]3(C)[C@H](CC[C@@H]4[C@@]5(C)CC[C@H](O)C(C)(C)[C@@H]5CC[C@]43C)[C@@H]12 [Betulinic acid, 3β-hydroxy-1up-20(29)-ene-28-oic acid] | – | – | toxic reaction [5]: no obvious toxic reaction |
| – | CCO/N=C(\c1ccc(Br)cc1)C1CCN(C2(C)CCN(C(=O)c3c(C)cc[n+]([O-])c3C)CC2)CC1 [SCH-C, reference compound] | – | 2583 | – |
